Measurements published in patent US12077503B2, “Substituted cyclic amides and their use as herbicides” (FMC CORPORATION, priority 2015, dated 2024).

Columns and labels:
Format in all cases: in vivo
Kochia (Kochia scoparia) [1] = assay: Test E preemergence; settings: scale 0 to 100
From the text: (§1) Seeds of plant species selected from corn (Zea mays), soybean (Glycine max), velvetleaf (Abutilon theophrasti), lambsquarters (Chenopodium album), poinsettia, wild (wild poinsettia, Euphorbia heterophylla), pigweed, palmer (palmer pigweed, Amaranthus palmeri), waterhemp (common waterhemp, Amaranthus rudis), surinam grass (Brachiaria decumbens), crabgrass, large (large crabgrass, Digitaria sangumnalis), crabgrass, Brazil (Brazilian crabgrass, Digitaria horizontalis), Panicum, fall (fall Panicum, Panicum dichotomiflorum), foxtail, giant (giant foxtail, Setaria faberii), foxtail, green (green foxtail, Setaria viridis), goosegrass (Eleusine indica), johnsongrass (Sorghum halepense), ragweed (common ragweed, Ambrosia elatior), barnyardgrass (Echinochloa crus-galli), sandbur (southern sandbur, Cenchrus echinatus), arrowleaf Sida (Sida rhombifolia), ryegrass, Italian (Italian ryegrass, Lolium multiflorum), dayflower, VA (Virginia dayflower, Commelina virginica), field bindweed (Convolvulus arvensis), morningglory (Ipomoea coccinea), nightshade (eastern black nightshade, Solanum ptycanthum), Kochia (Kochia scoparia), nutsedge, yellow (yellow nutsedge, Cyperus esculentus), horseweed (Conyza canadensis), and beggarticks (hairy beggarticks, Bidens pilosa), were planted into a silt loam soil and treated preemergence with test chemicals formulated in a non-phytotoxic solvent mixture which included a surfactant.
(§2) At the same time, plants selected from these crop and weed species were planted in pots containing Sunshine Redi-Earth planting medium comprising spaghnum peat moss, vermiculite, starter nutrients and dolomitic limestone and treated with postemergence applications of a test chemical formulated in the same manner. Plants ranged in height from 2 to 18 cm (1- to 4-leaf stage) for postemergence treatments. Treated plants and controls were maintained in a greenhouse for 14 to 21 d, after which time all species were compared to controls and visually evaluated. Plant response ratings, summarized in Table E, are based on a scale of 0 to 100 where 0 is no effect and 100 is complete control. A dash (-) response means no test result.

[2] = tested on: arrowleaf Sida (Sida rhombifolia); assay: Test E preemergence; settings: scale 0 to 100
From the text: as §1, §2

[3] = tested on: barnyardgrass (Echinochloa crus-galli); assay: Test E preemergence; settings: scale 0 to 100
From the text: as §1, §2

[4] = tested on: crabgrass, large (large crabgrass, Digitaria sangumnalis); assay: Test E preemergence; settings: scale 0 to 100
From the text: as §1, §2

[5] = tested on: dayflower, VA (Virginia dayflower, Commelina virginica); assay: Test E preemergence; settings: scale 0 to 100
From the text: as §1, §2

[6] = tested on: field bindweed (Convolvulus arvensis); assay: Test E preemergence; settings: scale 0 to 100
From the text: as §1, §2

[7] = tested on: nightshade (eastern black nightshade, Solanum ptycanthum); assay: Test E preemergence; settings: scale 0 to 100
From the text: as §1, §2

[8] = tested on: nutsedge, yellow (yellow nutsedge, Cyperus esculentus); assay: Test E preemergence; settings: scale 0 to 100
From the text: as §1, §2

[9] = tested on: poinsettia, wild (wild poinsettia, Euphorbia heterophylla); assay: Test E preemergence; settings: scale 0 to 100
From the text: as §1, §2

soybean (Glycine max) = assay: Test E preemergence; settings: scale 0 to 100
From the text: as §1, §2

[10] = tested on: velvetleaf (Abutilon theophrasti); assay: Test E preemergence; settings: scale 0 to 100
From the text: as §1, §2

Kochia (Kochia scoparia) [11] = assay: Test C postemergence; settings: scale 0 to 100, 0 no effect, 100 complete control
Summary of the method: (§3)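 Preemergence: sow in loam-sand soil and treat. Postemergence: grow in peat-moss/vermiculite medium to 2–18 cm (1–4 leaves) and spray. Compound in non-phytotoxic solvent with surfactant; keep in greenhouse 13–15 d; score visually against controls, 0 (none) to 100 (full control).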

[12] = tested on: morningglory (Ipomoea coccinea); assay: Test C postemergence; settings: scale 0 to 100, 0 no effect, 100 complete control
Summary of the method: as §3

[13] = tested on: ryegrass, Italian (Italian ryegrass, Lolium multiflorum); assay: Test C postemergence; settings: scale 0 to 100, 0 no effect, 100 complete control
Summary of the method: as §3

[14] = tested on: waterhemp (common waterhemp, Amaranthus rudis); assay: Test C postemergence; settings: scale 0 to 100, 0 no effect, 100 complete control
Summary of the method: as §3

## CN1CC(c2cccc(OC(F)(F)C(F)F)c2)C(C(=O)Nc2cccc(F)c2F)C1=O (stereo not drawn) [Compound 392]
Kochia (Kochia scoparia) [1]; 31 g ai/ha
  Plant response rating: Kochia: 85
Kochia (Kochia scoparia) [1]; 62 g ai/ha
  Plant response rating: Kochia: 90
Kochia (Kochia scoparia) [1]; 125 g ai/ha
  Plant response rating: Kochia: 80
Kochia (Kochia scoparia) [1]; 250 g ai/ha
  Plant response rating: Kochia: 90
[2]; 31 g ai/ha
  Plant response rating: Arrowleaf Sida: 0
[2]; 62 g ai/ha
  Plant response rating: Arrowleaf Sida: 15
[2]; 125 g ai/ha
  Plant response rating: Arrowleaf Sida: 65
[2]; 250 g ai/ha
  Plant response rating: Arrowleaf Sida: 80
[3]; 31 g ai/ha
  Plant response rating: Barnyardgrass: 85
[3]; 62 g ai/ha
  Plant response rating: Barnyardgrass: 70
[3]; 125 g ai/ha
  Plant response rating: Barnyardgrass: 90
[3]; 250 g ai/ha
  Plant response rating: Barnyardgrass: 95
[4]; 31 g ai/ha
  Plant response rating: Crabgrass, Large: 90
[4]; 62 g ai/ha
  Plant response rating: Crabgrass, Large: 95
[4]; 125 g ai/ha
  Plant response rating: Crabgrass, Large: 98
[4]; 250 g ai/ha
  Plant response rating: Crabgrass, Large: 98
[5]; 31 g ai/ha
  Plant response rating: Dayflower, VA: 0
[5]; 62 g ai/ha
  Plant response rating: Dayflower, VA: 0
[5]; 125 g ai/ha
  Plant response rating: Dayflower, VA: 0
[5]; 250 g ai/ha
  Plant response rating: Dayflower, VA: 35
[6]; 31 g ai/ha
  Plant response rating: Field Bindweed: 0
[6]; 62 g ai/ha
  Plant response rating: Field Bindweed: 0
[6]; 125 g ai/ha
  Plant response rating: Field Bindweed: 35
[6]; 250 g ai/ha
  Plant response rating: Field Bindweed: 70
[7]; 31 g ai/ha
  Plant response rating: Nightshade: 20
[7]; 62 g ai/ha
  Plant response rating: Nightshade: 80
[7]; 125 g ai/ha
  Plant response rating: Nightshade: 90
[7]; 250 g ai/ha
  Plant response rating: Nightshade: 90
[8]; 31 g ai/ha
  Plant response rating: Nutsedge, Yellow: 0
[8]; 62 g ai/ha
  Plant response rating: Nutsedge, Yellow: 0
[8]; 125 g ai/ha
  Plant response rating: Nutsedge, Yellow: 0
[8]; 250 g ai/ha
  Plant response rating: Nutsedge, Yellow: 0
[9]; 31 g ai/ha
  Plant response rating: Poinsettia, Wild: 0
[9]; 62 g ai/ha
  Plant response rating: Poinsettia, Wild: 0
[9]; 125 g ai/ha
  Plant response rating: Poinsettia, Wild: 35
[9]; 250 g ai/ha
  Plant response rating: Poinsettia, Wild: 20
Soybean (Glycine max); 31 g ai/ha
  Plant response rating: Soybean: 0
Soybean (Glycine max); 62 g ai/ha
  Plant response rating: Soybean: 0
Soybean (Glycine max); 125 g ai/ha
  Plant response rating: Soybean: 20
Soybean (Glycine max); 250 g ai/ha
  Plant response rating: Soybean: 25
[10]; 31 g ai/ha
  Plant response rating: Velvetleaf: 0
[10]; 62 g ai/ha
  Plant response rating: Velvetleaf: 20
[10]; 125 g ai/ha
  Plant response rating: Velvetleaf: 50
[10]; 250 g ai/ha
  Plant response rating: Velvetleaf: 75

## CN1CC(c2ccc(F)c(F)c2)C(C(=O)Nc2ccccc2S(C)(=O)=O)C1=O (stereo not drawn) [Compound 640]
Kochia (Kochia scoparia) [11]; 31 g ai/ha
  Plant response rating, Kochia: 20
Kochia (Kochia scoparia) [11]; 62 g ai/ha
  Plant response rating, Kochia: 30
Kochia (Kochia scoparia) [11]; 125 g ai/ha
  Plant response rating, Kochia: 30
Kochia (Kochia scoparia) [11]; 250 g ai/ha
  Plant response rating, Kochia: 75
[12]; 31 g ai/ha
  Plant response rating, Morningglory: 35
[12]; 62 g ai/ha
  Plant response rating, Morningglory: 40
[12]; 125 g ai/ha
  Plant response rating, Morningglory: 55
[12]; 250 g ai/ha
  Plant response rating, Morningglory: 40
[13]; 31 g ai/ha
  Plant response rating, Ryegrass, Italian: 0
[13]; 62 g ai/ha
  Plant response rating, Ryegrass, Italian: 0
[13]; 125 g ai/ha
  Plant response rating, Ryegrass, Italian: 0
[13]; 250 g ai/ha
  Plant response rating, Ryegrass, Italian: 5
[14]; 31 g ai/ha
  Plant response rating, Waterhemp: 5
[14]; 62 g ai/ha
  Plant response rating, Waterhemp: 20
[14]; 125 g ai/ha
  Plant response rating, Waterhemp: 10
[14]; 250 g ai/ha
  Plant response rating, Waterhemp: 30
